Measurements reported in ChEMBL document CHEMBL5390307, “Sila-CBD Derivatives as Inhibitors of Heme-Induced NLRP3 Inflammasome: Application in Hemolytic Diseases” (ACS Med Chem Lett, 2023).
Activity calls are given as the source filed them. No cut-off for these calls is given here.

What was measured:
J774.A1 = experiment: Cytotoxicity against mouse J774.A1 cells assessed as reduction in cell viability at 10 uM incubated for 24 hrs by MTT assay; type: toxicity, cell-based; conditions: j774.a1, 24 h
[1] = Metabolic stability in mouse liver microsomes assessed as drug degradation measured after 5 mins in absence of NADPH by single ion monitoring mode based LC-MS method relative to control; type: ADME, Microsome; conditions: read-out: Drug degradation
[2] = Metabolic stability in mouse liver microsomes in presence of NADPH measured after 5 mins by single ion monitoring mode based LC-MS method; type: ADME, Microsome
[3] = biological target: NACHT, LRR and PYD domains-containing protein 3 (Homo sapiens) (UniProt Q96P20); experiment: Inhibition of NLRP3 mediated in HEME-induced inflammasome in human PMA differentiated THP-1 cells assessed as reduction in IL-1beta level in presence of LPS at 0.1 to 10 uM pretreated for 1 hr followed by hemin addition measured after 1 hrs by ELISA method; type: cell-based; conditions: dose 0.1-10 µM, time 2.0 hrs
[4] = Metabolic stability in mouse liver microsomes assessed as drug degradation in the presence of NADPH measured after 5 mins by LC-MS method; type: ADME, Microsome
[5] = biological target: NACHT, LRR and PYD domains-containing protein 3 (Homo sapiens) (UniProt Q96P20); experiment: Inhibition of NLRP3 mediated in HEME-induced inflammasome in human PMA differentiated THP-1 cells assessed as reduction in IL-1beta level in presence of LPS at 1 uM pretreated for 1 hr followed by hemin addition measured after 1 hrs by ELISA method relative to control; type: cell-based; conditions: time 2.0 hrs
Mus musculus [6] = experiment: Antiinflammatory activity against LPS/HEME-induced Balb/C mouse model assessed as reduction of IL-1 beta secretion at 10 mg/kg, ip administered for 30 mins followed by LPS for 4 hrs incubation and later stimulated with HEME for 1 hrs by ELISA; type: functional, organism-based; conditions: time 330.0 min
[7] = biological target: NACHT, LRR and PYD domains-containing protein 3 (Mus musculus) (UniProt Q8R4B8); experiment: Inhibition of NLRP3 inflammasome in mouse J774.A1 cells assessed as reduction in IL-6 in presence of LPS at 0.1 to 1 uM pretreated for 1 hr followed by LPS stimulation measured after 24 hrs by ELISA method; type: cell-based; conditions: dose 0.1-1 µM, time 25.0 hrs
[8] = biological target: NACHT, LRR and PYD domains-containing protein 3 (Homo sapiens) (UniProt Q96P20); experiment: Inhibition of NLRP3 mediated in HEME-induced inflammasome in human PMA differentiated THP-1 cells assessed as reduction in IL-1beta level in presence of LPS at 0.1 uM pretreated for 1 hr followed by hemin addition measured after 1 hrs by ELISA method relative to control; type: cell-based; conditions: time 2.0 hrs
[9] = biological target: NACHT, LRR and PYD domains-containing protein 3 (Mus musculus) (UniProt Q8R4B8); experiment: Inhibition of NLRP3 inflammasome in mouse J774.A1 cells assessed as reduction in TNF-alpha in presence of LPS at 10 uM pretreated for 1 hr followed by LPS stimulation measured after 24 hrs by ELISA method; type: cell-based; conditions: time 25.0 hrs
Mus musculus [10] = experiment: Antiinflammatory activity against LPS/HEME-induced Balb/C mouse model assessed as reduction of IL-1 beta secretion at 30 mg/kg, ip administered for 30 mins followed by LPS for 4 hrs incubation and later stimulated with HEME for 1 hrs by ELISA; type: functional, organism-based; conditions: time 330.0 min
[11] = Metabolic stability in human liver microsomes assessed as drug degradation measured after 5 mins by LC-MS method relative to control; type: ADME, Microsome; conditions: read-out: Drug degradation
[12] = biological target: NACHT, LRR and PYD domains-containing protein 3 (Mus musculus) (UniProt Q8R4B8); experiment: Inhibition of NLRP3 inflammasome in mouse J774.A1 cells assessed as reduction in TNF-alpha in presence of LPS at 0.1 to 1 uM pretreated for 1 hr followed by LPS stimulation measured after 24 hrs by ELISA method; type: cell-based; conditions: dose 0.1-1 µM, time 25.0 hrs
[13] = biological target: NACHT, LRR and PYD domains-containing protein 3 (Homo sapiens) (UniProt Q96P20); experiment: Inhibition of NLRP3 mediated in HEME-induced inflammasome in human PMA differentiated THP-1 cells assessed as reduction in IL-1beta level in presence of LPS at 10 uM pretreated for 1 hr followed by hemin addition measured after 1 hrs by ELISA method relative to control; type: cell-based; conditions: time 2.0 hrs
[14] = biological target: NACHT, LRR and PYD domains-containing protein 3 (Homo sapiens) (UniProt Q96P20); experiment: Inhibition of NLRP3 mediated in HEME-induced inflammasome in human PMA differentiated THP-1 cells assessed as reduction in IL-1beta level in presence of LPS at 1 uM pretreated for 1 hr followed by hemin addition measured after 1 hrs by ELISA method; type: cell-based; conditions: time 2.0 hrs
[15] = biological target: NACHT, LRR and PYD domains-containing protein 3 (Homo sapiens) (UniProt Q96P20); experiment: Inhibition of NLRP3 mediated in HEME-induced inflammasome in human PMA differentiated THP-1 cells assessed as reduction in IL-1beta level in presence of LPS at 10 uM pretreated for 1 hr followed by hemin addition measured after 1 hrs by ELISA method; type: cell-based; conditions: time 2.0 hrs
[16] = biological target: NACHT, LRR and PYD domains-containing protein 3 (Mus musculus) (UniProt Q8R4B8); experiment: Inhibition of NLRP3 inflammasome in mouse J774.A1 cells assessed as reduction in IL-6 in presence of LPS at 10 uM pretreated for 1 hr followed by LPS stimulation measured after 24 hrs by ELISA method; type: cell-based; conditions: time 25.0 hrs
Mus musculus [17] = experiment: Antiinflammatory activity against LPS/HEME-induced Balb/C mouse model assessed as reduction of IL-1 beta secretion at 1 mg/kg, ip administered for 30 mins followed by LPS for 4 hrs incubation and later stimulated with HEME for 1 hrs by ELISA; type: functional, organism-based; conditions: time 330.0 min

Sequence of NACHT, LRR and PYD domains-containing protein 3 (Mus musculus) (Q8R4B8 whole entry, the tested form may be a part): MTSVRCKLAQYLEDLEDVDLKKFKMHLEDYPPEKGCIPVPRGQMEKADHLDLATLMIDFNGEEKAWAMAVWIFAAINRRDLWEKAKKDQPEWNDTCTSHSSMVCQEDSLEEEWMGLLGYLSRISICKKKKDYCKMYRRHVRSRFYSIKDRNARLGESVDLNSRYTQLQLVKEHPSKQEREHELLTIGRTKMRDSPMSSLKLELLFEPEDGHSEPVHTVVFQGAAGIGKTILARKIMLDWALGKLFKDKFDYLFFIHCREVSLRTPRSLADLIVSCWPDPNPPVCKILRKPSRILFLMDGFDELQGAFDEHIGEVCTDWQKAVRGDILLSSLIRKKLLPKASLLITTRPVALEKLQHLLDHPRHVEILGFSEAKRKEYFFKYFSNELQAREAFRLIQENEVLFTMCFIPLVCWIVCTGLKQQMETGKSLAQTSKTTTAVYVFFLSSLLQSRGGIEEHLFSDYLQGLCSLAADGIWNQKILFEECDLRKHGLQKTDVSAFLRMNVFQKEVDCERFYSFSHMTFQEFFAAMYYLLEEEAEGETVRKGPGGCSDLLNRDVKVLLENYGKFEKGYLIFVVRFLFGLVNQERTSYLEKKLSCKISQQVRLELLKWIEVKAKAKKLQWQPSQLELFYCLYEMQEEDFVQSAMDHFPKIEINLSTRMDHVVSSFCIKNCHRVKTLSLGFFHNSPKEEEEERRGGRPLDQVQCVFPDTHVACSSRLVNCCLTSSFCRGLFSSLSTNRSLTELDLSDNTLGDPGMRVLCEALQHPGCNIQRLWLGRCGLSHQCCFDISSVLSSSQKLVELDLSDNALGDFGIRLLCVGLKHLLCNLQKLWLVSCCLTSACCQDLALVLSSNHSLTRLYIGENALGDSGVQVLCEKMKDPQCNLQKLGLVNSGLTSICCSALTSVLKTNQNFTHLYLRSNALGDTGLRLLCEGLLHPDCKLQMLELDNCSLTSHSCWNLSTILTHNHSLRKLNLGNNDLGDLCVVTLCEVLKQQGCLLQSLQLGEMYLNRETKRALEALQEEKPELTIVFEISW
Sequence of NACHT, LRR and PYD domains-containing protein 3 (Homo sapiens) (Q96P20 whole entry, the tested form may be a part): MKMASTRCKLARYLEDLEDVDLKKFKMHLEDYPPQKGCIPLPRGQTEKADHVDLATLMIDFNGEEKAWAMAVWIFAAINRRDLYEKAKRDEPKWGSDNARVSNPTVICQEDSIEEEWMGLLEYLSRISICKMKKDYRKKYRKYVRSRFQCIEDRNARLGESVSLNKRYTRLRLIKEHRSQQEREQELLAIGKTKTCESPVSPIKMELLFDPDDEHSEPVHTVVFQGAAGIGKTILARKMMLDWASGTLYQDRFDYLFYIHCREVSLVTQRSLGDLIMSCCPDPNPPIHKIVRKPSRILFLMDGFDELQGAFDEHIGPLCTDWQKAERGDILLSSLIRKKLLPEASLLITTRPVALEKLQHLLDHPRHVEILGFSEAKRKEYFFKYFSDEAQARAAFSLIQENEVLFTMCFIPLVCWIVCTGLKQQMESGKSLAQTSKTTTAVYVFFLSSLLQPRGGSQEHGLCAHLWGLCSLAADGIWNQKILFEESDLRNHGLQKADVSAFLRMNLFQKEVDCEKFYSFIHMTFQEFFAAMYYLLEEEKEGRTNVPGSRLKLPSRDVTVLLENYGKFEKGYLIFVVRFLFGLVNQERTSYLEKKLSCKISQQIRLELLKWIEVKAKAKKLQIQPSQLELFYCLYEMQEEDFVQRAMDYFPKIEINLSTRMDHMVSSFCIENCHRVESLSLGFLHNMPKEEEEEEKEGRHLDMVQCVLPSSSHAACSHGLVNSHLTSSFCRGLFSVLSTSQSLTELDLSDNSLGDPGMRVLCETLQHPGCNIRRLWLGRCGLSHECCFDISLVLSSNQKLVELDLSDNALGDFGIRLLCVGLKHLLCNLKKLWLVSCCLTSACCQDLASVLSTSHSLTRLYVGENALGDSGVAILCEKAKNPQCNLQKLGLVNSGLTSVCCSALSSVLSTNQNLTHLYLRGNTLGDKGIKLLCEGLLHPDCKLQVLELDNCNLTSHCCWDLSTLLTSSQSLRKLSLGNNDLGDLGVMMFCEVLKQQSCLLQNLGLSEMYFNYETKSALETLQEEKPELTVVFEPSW

## C=C(C)[C@@H]1CCC(C)=C[C@H]1c1c(O)cc([Si](C)(C)CCCCCC)cc1O
J774.A1
  Activity: Non-Toxic

## C=C(C)[C@@H]1CCC(C)=C[C@H]1C1=C(O)C(=O)C(CCCCC)=CC1=O
[1]
  metabolised at 5 min: < 20%
[2]
  Stability: Stable
[3]
  inhibition: inactive

## CCCCCC1=CC(=O)C(C/C=C(\C)CCC=C(C)C)=C(O)C1=O
[3]
  inhibition: inactive

## C=C(C)[C@@H]1CCC(C)=C[C@H]1C1=C(O)C(=O)C([Si](C)(C)C)=CC1=O
[4]
  Drug degradation: Stable
J774.A1
  Activity: Non-Toxic
[5]
  inhibition: > 50%
Mus musculus [6]
  Activity: Active
[7]
  inhibition: Active
[8]
  inhibition: > 20%
[9]
  inhibition: Active
Mus musculus [10]
  Activity: Active
[11]
  metabolised at 5 min: 10%
[12]
  inhibition: Active
[13]
  inhibition: > 80%

## CCCC[Si](C)(C)c1cc(O)c(C/C=C(\C)CCC=C(C)C)c(O)c1
J774.A1
  Activity: Non-Toxic

## CC(C)=CCC/C(C)=C/CC1=C(O)C(=O)C([Si](C)(C)C)=CC1=O
J774.A1
  Activity: Non-Toxic
[7]
  inhibition: inactive
[14]
  inhibition: Active
[15]
  inhibition: Active
[9]
  inhibition: Active
[12]
  inhibition: inactive

## CC(C)=CCC/C(C)=C/Cc1c(O)cc([Si](C)(C)C)cc1O
J774.A1
  Activity: Non-Toxic

## CCCCCc1cc(O)c(C/C=C(\C)CCC=C(C)C)c(O)c1
[14]
  inhibition: Active

## C=C(C)[C@@H]1CCC(C)=C[C@H]1c1c(O)cc([Si](C)(C)CCCC)cc1O
J774.A1
  Activity: Non-Toxic

## CCCCCC[Si](C)(C)C1=CC(=O)C(C/C=C(\C)CCC=C(C)C)=C(O)C1=O
J774.A1
  Activity: Non-Toxic
[16]
  inhibition: Active
[7]
  inhibition: inactive
[14]
  inhibition: Active
[15]
  inhibition: Active
[12]
  inhibition: inactive

## COc1cc2c(c(OC)c1OC)-c1ccc(OC)c(=O)cc1[C@@H](NC(C)=O)CC2
Mus musculus [17]
  Activity: Active

## CCCC[Si](C)(C)C1=CC(=O)C(C/C=C(\C)CCC=C(C)C)=C(O)C1=O
J774.A1
  Activity: Non-Toxic
[16]
  inhibition: Active
[7]
  inhibition: inactive
[14]
  inhibition: Active
[15]
  inhibition: Active
[12]
  inhibition: inactive

## CCCCCC[Si](C)(C)c1cc(O)c(C/C=C(\C)CCC=C(C)C)c(O)c1
J774.A1
  Activity: Non-Toxic
[14]
  inhibition: Active
[13]
  inhibition: 60%
